In patent US20240279233A1, “MACROCYCLIC TAK1 INHIBITORS” (Aqilion AB, priority 2021, published 2024):
Values after ≈ are worked out from the molar mass of the structure shown. Where two headings read alike, the source gives them in different places.

Tests used:
[1] = Solubility assay in phosphate buffer; conditions: phosphate buffer 100 mM, pH 7.4, room temperature, 20-24 h, LC-UV
Procedure: The aqueous solubility of selected example compounds was determined as follows; 6 μL of DMSO stock solution of the selected example was added to 594 μL phosphate buffer (100 mM, pH 7.4). The resulting mixture was equilibrated over night (20-24 h, Alligator Shaker, room temperature). The mixture was then filtered (Millex LH 0.45 μm) and the concentration/solubility was determined by LC-UV quantification.

[2] = target: human recombinant TAK1-TAB1 Kinase (TAK1 (1-303) and TAB1 (437-end)) (Homo sapiens (Human), UniProt O43318); assay: TAK1 biochemical ADP-Glo kinase assay; conditions: MBP substrate
In short: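 Inhibition of human recombinant TAK1-TAB1 kinase was measured with a Promega ADP-Glo luminescence assay in 384-well plates. Compounds in 5% DMSO were pre-incubated 10 min with 2 μl TAK1-TAB1 (7.5 ng/μl) in buffer of Tris pH 7.5, MgCl2, DTT and BSA. MBP substrate and ATP were then added for 1 hour at room temperature. ADP-Glo reagent and kinase detection substrate followed, luminescence was read on an Envision, and IC50 came from non-linear regression.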

[3] = phosphate buffer, pH 7.4, aqueous buffer, kinetic from dmso stock, Solubility (μM)
[4] = 10 μM ATP, read-out: TAK1 Mean IC50 (nM) @ 10 μM ATP
[5] = 1 mM ATP, read-out: TAK1 Mean IC50 (nM) @ 1 mM ATP

human recombinant TAK1-TAB1 Kinase (TAK1 (1-303) and TAB1 (437-end)), sequence (O43318 other isoform, or with tags, fused parts or gaps): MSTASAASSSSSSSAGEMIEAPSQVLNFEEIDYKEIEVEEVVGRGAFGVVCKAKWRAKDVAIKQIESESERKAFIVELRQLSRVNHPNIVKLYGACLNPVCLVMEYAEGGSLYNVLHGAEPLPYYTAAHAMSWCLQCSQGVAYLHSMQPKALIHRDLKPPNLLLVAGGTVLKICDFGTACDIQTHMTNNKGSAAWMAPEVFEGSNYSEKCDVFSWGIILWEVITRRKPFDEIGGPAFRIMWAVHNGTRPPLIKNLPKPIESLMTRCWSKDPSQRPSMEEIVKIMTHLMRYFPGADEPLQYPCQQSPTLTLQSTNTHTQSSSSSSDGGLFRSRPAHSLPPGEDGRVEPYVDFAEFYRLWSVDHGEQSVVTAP

SMILES | solubility [1, 3] | IC50 [2, 4] | IC50 [2, 5] | solubility [1]
O=C1/N=C2\Nc3ccc(C(=O)N4CCN(C5COC5)CC4)cc3N2CCCCCNC(=O)c2cccc1c2 [Example 98, (E)-1^6-(4-(oxetan-3-yl)piperazine-1-carbonyl)-1^2,1^3-dihydro-1^1H-2,6-diaza-1(2,1)-benzo[d]imidazola-4(1,3)-benzenacycloundecaphane-3,5-dione] | 4.7 µM (≈ 2.43 µg/mL) | 5 nM | – | –
C[C@H]1CCCCNC(=O)c2cccc(c2)C(=O)Nc2nc3ccc(Cl)c(C(=O)N(C)C)c3n21 (single isomer, unassigned) [Example 54] | 9 µM (≈ 4.21 µg/mL) | 8 nM | 25 nM | –
CC(C)(C)OC(=O)N1CCN(C(=O)c2ccc3c(c2)nc2n3CCCCCNC(=O)c3cccc(c3)C(=O)N2)CC1 [Example 13, tert-butyl 4-(3,5-dioxo-1^1H-2,6-diaza-1(2,1)-benzo[d]imidazola-4(1,3)-benzenacycloundecaphane-1^5-carbonyl)piperazine-1-carboxylate] | 0.2 µM (≈ 0.112 µg/mL) | 1 nM | – | –
CC(C)N(C)C(=O)c1cccc2c1N1/C(=N/C(=O)c3cccc(c3)C(=O)NCCCCC1C)N2 (centres unmarked) [Example 48, (E)-N-isopropyl-N,11-dimethyl-3,5-dioxo-1^2,1^3-dihydro-1^1H-2,6-diaza-1(2,1)-benzo[d]imidazola-4(1,3)-benzenacycloundecaphane-1^7-carboxamide] | – | 1 nM | – | 24.0 µM (≈ 11.1 µg/mL)
CC1CCCCNC(=O)c2cccc(c2)C(=O)/N=C2\Nc3cccc(C(=O)N4CCC4)c3N21 (centres unmarked) [Example 43, (E)-1^7-(azetidine-1-carbonyl)-11-methyl-1^2,1^3-dihydro-1^1H-2,6-diaza-1(2,1)-benzo[d]imidazola-4(1,3)-benzenacycloundecaphane-3,5-dione] | 16 µM (≈ 7.13 µg/mL) | 4 nM | – | –
C[C@H]1CCCCNC(=O)c2cccc(c2)C(=O)/N=C2\Nc3cccc(C(=O)N4C[C@H]5C[C@@H]4CN5C)c3N21 [Example 30, (S, E)-11-methyl-1^7-((1R,4R)-5-methyl-2,5-diazabicyclo[2.2.1]heptane-2-carbonyl)-1^2,1^3-dihydro-1^1H-2,6-diaza-1(2,1)-benzo[d]imidazola-4(1,3)-benzenacycloundecaphane-3,5-dione] | 95 µM (≈ 47.6 µg/mL) | 8 nM | – | –
O=C1NCCCCCn2c(nc3cc(C(=O)N4CCNCC4)ccc32)NC(=O)c2cccc1c2 [Example 16, 1^5-(piperazine-1-carbonyl)-1^1H-2,6-diaza-1(2,1)-benzo[d]imidazola-4(1,3)-benzenacycloundecaphane-3,5-dione] | 78.8 µM (≈ 36.3 µg/mL) | 3 nM | – | –
CC(C)(C)OC(=O)N1CCN(C(=O)c2cccc3nc4n(c23)CCCCCNC(=O)c2cccc(c2)C(=O)N4)CC1 [Example 14, tert-butyl 4-(3,5-dioxo-1^1H-2,6-diaza-1(2,1)-benzo[d]imidazola-4(1,3)-benzenacycloundecaphane-1^7-carbonyl)piperazine-1-carboxylate] | 0.3 µM (≈ 0.168 µg/mL) | 11 nM | – | –
C[C@H]1CCCCNC(=O)c2cccc(c2)C(=O)/N=C2\Nc3cccc(C(=O)N4CCC5(COC5)C4)c3N21 [Example 115, (S,E)-11-methyl-1^7-(2-oxa-6-azaspiro[3.4]octane-6-carbonyl)-1^2,1^3-dihydro-1^1H-2,6-diaza-1(2,1)-benzo[d]imidazola-4(1,3)-benzenacycloundecaphane-3,5-dione] | – | – | 11 nM | –
C[C@H]1CCCCNC(=O)c2cccc(c2)C(=O)/N=C2\Nc3cccc(C(=O)N4CC5(C4)CC(F)(F)CO5)c3N21 [Example 117, (S,E)-1^7-(7,7-difluoro-5-oxa-2-azaspiro[3.4]octane-2-carbonyl)-11-methyl-1^2,1^3-dihydro-1^1H-2,6-diaza-1(2,1)-benzo[d]imidazola-4(1,3)-benzenacycloundecaphane-3,5-dione] | – | – | 4 nM | –
C[C@H]1CCCCNC(=O)c2cccc(c2)C(=O)/N=C2\Nc3cccc(C(=O)N4CC(OC(F)(F)F)C4)c3N21 [Example 110, (S,E)-11-methyl-1^7-(3-(trifluoromethoxy)azetidine-1-carbonyl)-1^2,1^3-dihydro-1^1H-2,6-diaza-1(2,1)-benzo[d]imidazola-4(1,3)-benzenacycloundecaphane-3,5-dione] | – | – | 26 nM | –
C[C@H]1CCCCNC(=O)c2cccc(c2)C(=O)/N=C2\Nc3cccc(C(=O)N4C[C@H]5C[C@@H]4CO5)c3N21 [Example 112, (S,E)-1^7-((1R,4R)-2-oxa-5-azabicyclo[2.2.1]heptane-5-carbonyl)-11-methyl-1^2,1^3-dihydro-1^1H-2,6-diaza-1(2,1)-benzo[d]imidazola-4(1,3)-benzenacycloundecaphane-3,5-dione] | – | – | 8 nM | –
CC1CCCCNC(=O)c2cccc(c2)C(=O)/N=C2\Nc3cccc(-c4cc[nH]c(=O)c4)c3N21 (single isomer, unassigned) [Example 63, (E)-11-methyl-1^7-(2-oxo-1,2-dihydropyridin-4-yl)-1^2,1^3-dihydro-1^1H-2,6-diaza-1(2,1)-benzo[d]imidazola-4(1,3)-benzenacycloundecaphane-3,5-dione] | – | 8 nM | – | –
COC1CN(C(=O)c2cccc3c2N2/C(=N/C(=O)c4cccc(c4)C(=O)NCCCCC2C)N3)C1 (single isomer, unassigned) [Example 82, (E)-1^7-(3-methoxyazetidine-1-carbonyl)-11-methyl-1^2,1^3-dihydro-1^1H-2,6-diaza-1(2,1)-benzo[d]imidazola-4(1,3)-benzenacycloundecaphane-3,5-dione] | – | 7 nM | – | –
Cc1noc(-c2cccc3c2N2/C(=N/C(=O)c4cccc(c4)C(=O)NCCCC[C@@H]2C)N3)n1 [Example 147, (S,E)-11-methyl-1^7-(3-methyl-1,2,4-oxadiazol-5-yl)-1^2,1^3-dihydro-1^1H-2,6-diaza-1(2,1)-benzo[d]imidazola-4(1,3)-benzenacycloundecaphane-3,5-dione] | – | 5 nM | – | –
CC1CCCCNC(=O)c2cccc(c2)C(=O)/N=C2\Nc3cccc(N4CCN(C5COC5)C4=O)c3N21 (single isomer, unassigned) [Example 144, (E)-11-methyl-1^7-(3-(oxetan-3-yl)-2-oxoimidazolidin-1-yl)-1^2,1^3-dihydro-1^1H-2,6-diaza-1(2,1)-benzo[d]imidazola-4(1,3)-benzenacycloundecaphane-3,5-dione] | – | – | 10 nM | –
CC1CCCCNC(=O)c2cccc(c2)C(=O)/N=C2\Nc3cccc(C(=O)N4CC[C@H](F)C4)c3N21 (single isomer, unassigned) [Example 88] | – | 9 nM | – | –
CC1CCCCNC(=O)c2cccc(c2)C(=O)/N=C2\Nc3cccc(C(=O)N4CCOC[C@@H]4C)c3N21 (single isomer, unassigned) [Example 77] | – | 5 nM | – | –
CC1CCCCNC(=O)c2cccc(c2)C(=O)/N=C2\Nc3cccc(C(=O)N(C)C4CCC4)c3N21 (centres unmarked) [Example 39, (E)-N-cyclobutyl-N,11-dimethyl-3,5-dioxo-1^2,1^3-dihydro-1^1H-2,6-diaza-1(2,1)-benzo[d]imidazola-4(1,3)-benzenacycloundecaphane-1^7-carboxamide] | – | 6 nM | – | –
CC1CCCCNC(=O)c2cccc(c2)C(=O)/N=C2\Nc3cccc(C(=O)N(C)C4CC(O)C4)c3N21 (centres unmarked) [Example 41, (E)-N-(3-hydroxycyclobutyl)-N,11-dimethyl-3,5-dioxo-1^2,1^3-dihydro-1^1H-2,6-diaza-1(2,1)-benzo[d]imidazola-4(1,3)-benzenacycloundecaphane-1^7-carboxamide] | – | 3 nM | – | –
C[C@@H]1CCCCNC(=O)c2cccc(c2)C(=O)Nc2nc3cccc(-c4ncn(C)n4)c3n21 [Example 83, (R)-11-methyl-1^7-(1-methyl-1H-1,2,4-triazol-3-yl)-1^1H-2,6-diaza-1(2,1)-benzo[d]imidazola-4(1,3)-benzenacycloundecaphane-3,5-dione] | – | 6 nM | – | –
CC1CCCCNC(=O)c2cccc(c2)C(=O)Nc2nc3cccc(-c4ccc[nH]c4=O)c3n21 (single isomer, unassigned) [Example 36, (E)-11-methyl-1^7-(2-oxo-1,2-dihydropyridin-3-yl)-1^2,1^3-dihydro-1^1H-2,6-diaza-1(2,1)-benzo[d]imidazola-4(1,3)-benzenacycloundecaphane-3,5-dione] | – | 6 nM | – | –
Cc1nnc(-c2cccc3c2N2/C(=N/C(=O)c4cccc(c4)C(=O)NCCCCC2C)N3)o1 (single isomer, unassigned) [Example 132, (E)-11-methyl-1^7-(5-methyl-1,3,4-oxadiazol-2-yl)-1^2,1^3-dihydro-1^1H-2,6-diaza-1(2,1)-benzo[d]imidazola-4(1,3)-benzenacycloundecaphane-3,5-dione] | – | 10 nM | 10 nM | –
C[C@H]1CCCCNC(=O)c2cccc(c2)C(=O)/N=C2\Nc3ccnc(C(=O)N(C)C)c3N21 [Example 128, (S,E)-N,N,11-trimethyl-3,5-dioxo-1^2,1^3-dihydro-1^1H-2,6-diaza-1(2,3)-imidazo[4,5-c]pyridina-4(1,3)-benzenacycloundecaphane-1^4-carboxamide] | – | 7 nM | – | –
CC1CCCCNC(=O)c2cccc(c2)C(=O)/N=C2\Nc3cccc(-c4ncn(C(F)F)n4)c3N21 (single isomer, unassigned) [Example 138, (E)-1^7-(1-(difluoromethyl)-1H-1,2,4-triazol-3-yl)-11-methyl-1^2,1^3-dihydro-1^1H-2,6-diaza-1(2,1)-benzo[d]imidazola-4(1,3)-benzenacycloundecaphane-3,5-dione] | – | 8 nM | – | –
